# Results published in PubChem BioAssay (NCI).
#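 The compound was tested at five concentrations on cells cultured in 96-well plates, with a 48-hour exposure period. GI50 marks 50% less growth. TGI: total growth inhibition.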
# How the values were obtained:
# Assay in all cases: NCI-60 cell line screen, 48 h
# NCI-H522 lung = tested on: NCI-H522 lung
# SW-620 colon = tested on: SW-620 colon
# K-562 leukemia = tested on: K-562 leukemia
# PC-3 prostate = tested on: PC-3 prostate
# 786-0 renal = tested on: 786-0 renal
# OVCAR-3 ovarian = tested on: OVCAR-3 ovarian
# EKVX NSCLC = tested on: EKVX NSCLC
# SNB-19 CNS = tested on: SNB-19 CNS
# COLO 205 colon = tested on: COLO 205 colon
# CCRF-CEM leukemia = tested on: CCRF-CEM leukemia
# TK-10 renal = tested on: TK-10 renal
# HL-60(TB) leukemia = tested on: HL-60(TB) leukemia
# SK-MEL-2 melanoma = tested on: SK-MEL-2 melanoma
# NCI-H226 lung = tested on: NCI-H226 lung
# OVCAR-5 ovarian = tested on: OVCAR-5 ovarian
# BT-549 breast = tested on: BT-549 breast
# SK-OV-3 ovarian = tested on: SK-OV-3 ovarian
# HT29 colon = tested on: HT29 colon
# UACC-257 melanoma = tested on: UACC-257 melanoma
# HCT-116 colon = tested on: HCT-116 colon
# RXF 393 renal = tested on: RXF 393 renal
# UACC-62 melanoma = tested on: UACC-62 melanoma
# T-47D breast = tested on: T-47D breast
# SF-539 CNS = tested on: SF-539 CNS
# OVCAR-4 ovarian = tested on: OVCAR-4 ovarian
# SF-295 CNS = tested on: SF-295 CNS
# SNB-75 CNS = tested on: SNB-75 CNS
# MALME-3M melanoma = tested on: MALME-3M melanoma
# KM12 colon = tested on: KM12 colon
# SK-MEL-5 melanoma = tested on: SK-MEL-5 melanoma
# SN12C renal = tested on: SN12C renal
# UO-31 renal = tested on: UO-31 renal
# OVCAR-8 ovarian = tested on: OVCAR-8 ovarian
# MCF7 breast = tested on: MCF7 breast
# U251 CNS = tested on: U251 CNS
# CAKI-1 renal = tested on: CAKI-1 renal
# SK-MEL-28 melanoma = tested on: SK-MEL-28 melanoma
# A549 NSCLC = tested on: A549 NSCLC
# RPMI-8226 leukemia = tested on: RPMI-8226 leukemia
# HOP-62 NSCLC = tested on: HOP-62 NSCLC
# NCI-H23 lung = tested on: NCI-H23 lung
# MOLT-4 leukemia = tested on: MOLT-4 leukemia
# M14 melanoma = tested on: M14 melanoma
# HCT-15 colon = tested on: HCT-15 colon
# IGROV1 ovarian = tested on: IGROV1 ovarian
# NCI/ADR-RES ovarian = tested on: NCI/ADR-RES ovarian
# HCC-2998 colon = tested on: HCC-2998 colon
# A498 renal = tested on: A498 renal
# HS 578T breast = tested on: HS 578T breast
# MDA-MB-231 breast = tested on: MDA-MB-231 breast
# ACHN renal = tested on: ACHN renal
# HOP-92 NSCLC = tested on: HOP-92 NSCLC
# SF-268 CNS = tested on: SF-268 CNS
# DU-145 prostate = tested on: DU-145 prostate
# MDA-MB-435 = tested on: MDA-MB-435
# NCI-H460 lung = tested on: NCI-H460 lung
structure (smiles),measurement,setting,value
C[C@@H]1CC[C@H]2C(COC/C=C/COCC3=C(C(F)(F)F)O[C@@H]4O[C@@]5(C)CC[C@H]6[C@H](C)CC[C@@H]3[C@@]46OO5)=C(C(F)(F)F)O[C@@H]3O[C@@]4(C)CC[C@@H]1[C@]32OO4,GI50,NCI-H522 lung,327 nM
same,TGI,NCI-H522 lung,> 100 µM
same,GI50,SW-620 colon,10.1 nM
same,TGI,SW-620 colon,> 100 µM
same,GI50,K-562 leukemia,< 11.6 nM
same,TGI,K-562 leukemia,> 47 µM
same,GI50,PC-3 prostate,< 10 nM
same,TGI,786-0 renal,> 100 µM
same,GI50,OVCAR-3 ovarian,< 11.4 nM
same,TGI,OVCAR-3 ovarian,336 nM
same,GI50,EKVX NSCLC,72 nM
same,TGI,EKVX NSCLC,> 100 µM
same,GI50,SNB-19 CNS,542 nM
same,TGI,SNB-19 CNS,> 100 µM
same,GI50,COLO 205 colon,< 17.4 nM
same,GI50,CCRF-CEM leukemia,14.8 nM
same,TGI,CCRF-CEM leukemia,> 38.4 µM
same,GI50,TK-10 renal,36 nM
same,TGI,TK-10 renal,> 100 µM
same,GI50,HL-60(TB) leukemia,< 10 nM
same,TGI,HL-60(TB) leukemia,46.8 nM
same,GI50,SK-MEL-2 melanoma,387 nM
same,TGI,SK-MEL-2 melanoma,> 100 µM
same,GI50,NCI-H226 lung,19.9 nM
same,TGI,NCI-H226 lung,191 nM
same,GI50,OVCAR-5 ovarian,17.5 nM
same,TGI,OVCAR-5 ovarian,> 100 µM
same,GI50,BT-549 breast,64.4 nM
same,TGI,BT-549 breast,> 100 µM
same,GI50,SK-OV-3 ovarian,> 100 µM
same,TGI,SK-OV-3 ovarian,> 100 µM
same,GI50,HT29 colon,16.9 nM
same,TGI,HT29 colon,> 100 µM
same,GI50,UACC-257 melanoma,53.8 nM
same,TGI,UACC-257 melanoma,11.8 µM
same,GI50,HCT-116 colon,< 10 nM
same,TGI,HCT-116 colon,> 100 µM
same,GI50,RXF 393 renal,1640 nM
same,TGI,RXF 393 renal,> 20.7 µM
same,GI50,UACC-62 melanoma,78.1 nM
same,TGI,UACC-62 melanoma,> 100 µM
same,TGI,T-47D breast,> 100 µM
same,GI50,SF-539 CNS,< 24.2 nM
same,TGI,SF-539 CNS,> 21.4 µM
same,GI50,OVCAR-4 ovarian,518 nM
same,TGI,OVCAR-4 ovarian,> 100 µM
same,GI50,SF-295 CNS,< 24.4 nM
same,GI50,SNB-75 CNS,12.7 µM
same,TGI,SNB-75 CNS,> 100 µM
same,GI50,MALME-3M melanoma,< 10 nM
same,TGI,MALME-3M melanoma,44.5 nM
same,GI50,KM12 colon,< 10 nM
same,TGI,KM12 colon,32.8 nM
same,GI50,SK-MEL-5 melanoma,86.6 nM
same,TGI,SK-MEL-5 melanoma,> 100 µM
same,GI50,SN12C renal,19.1 nM
same,TGI,SN12C renal,685 nM
same,GI50,UO-31 renal,786 nM
same,TGI,UO-31 renal,> 100 µM
same,GI50,OVCAR-8 ovarian,< 20.6 nM
same,TGI,OVCAR-8 ovarian,> 32.6 µM
same,GI50,MCF7 breast,28 nM
same,TGI,MCF7 breast,> 58.3 µM
same,GI50,U251 CNS,< 10 nM
same,TGI,U251 CNS,179 nM
same,GI50,CAKI-1 renal,158 nM
same,GI50,SK-MEL-28 melanoma,63.9 µM
same,TGI,SK-MEL-28 melanoma,> 100 µM
same,GI50,A549 NSCLC,< 13.8 nM
same,TGI,A549 NSCLC,> 50.1 µM
same,GI50,RPMI-8226 leukemia,< 10 nM
same,TGI,RPMI-8226 leukemia,> 100 µM
same,TGI,HOP-62 NSCLC,> 100 µM
same,GI50,NCI-H23 lung,< 17.8 nM
same,TGI,NCI-H23 lung,12.3 µM
same,GI50,MOLT-4 leukemia,< 10 nM
same,TGI,MOLT-4 leukemia,40.6 µM
same,TGI,M14 melanoma,> 100 µM
same,GI50,HCT-15 colon,38 nM
same,TGI,HCT-15 colon,14.2 µM
same,GI50,IGROV1 ovarian,1270 nM
same,TGI,IGROV1 ovarian,98.2 µM
same,GI50,NCI/ADR-RES ovarian,3.14 µM
same,TGI,NCI/ADR-RES ovarian,> 71.3 µM
same,GI50,HCC-2998 colon,472 nM
same,TGI,HCC-2998 colon,> 100 µM
same,GI50,A498 renal,1540 nM
same,TGI,A498 renal,> 100 µM
same,GI50,HS 578T breast,42.9 nM
same,TGI,HS 578T breast,> 100 µM
same,GI50,MDA-MB-231 breast,< 41.6 nM
same,TGI,MDA-MB-231 breast,865 nM
same,GI50,ACHN renal,46.8 nM
same,TGI,ACHN renal,753 nM
same,GI50,HOP-92 NSCLC,< 32 nM
same,GI50,SF-268 CNS,84.6 nM
same,TGI,SF-268 CNS,> 100 µM
same,GI50,DU-145 prostate,531 nM
same,TGI,DU-145 prostate,> 100 µM
same,GI50,MDA-MB-435,< 12 nM
same,GI50,NCI-H460 lung,22.6 nM
same,TGI,NCI-H460 lung,> 100 µM
